According to ChEMBL document CHEMBL1201862, “PubChem BioAssay data set” (2004):
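Following 48 hours of exposure in 96-well plates, responses at five concentrations were used to interpolate endpoints linearly. Abbreviation: GI50, concentration required for 50% inhibition of growth.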 Calls of active or inactive are those of the source. Rule as the data show it: active = GI50 up to about 1.1 µM and inactive = higher.

What was measured:
Experiment in all cases: DTP human tumour cell line panel, 48 h
OVCAR-4 = system: OVCAR-4
COLO 205 = system: COLO 205
A549 = system: A549
HCT-116 = system: HCT-116
SNB-19 = system: SNB-19
SK-OV-3 = system: SK-OV-3
HCC 2998 = system: HCC 2998
HCT-15 = system: HCT-15
UACC-62 = system: UACC-62
TK-10 = system: TK-10
UACC-257 = system: UACC-257
EKVX = system: EKVX
NCI-H23 = system: NCI-H23
HOP-92 = system: HOP-92
SF-295 = system: SF-295
RPMI-8226 = system: RPMI-8226

Row | Compound | GI50 (OVCAR-4) | GI50 (COLO 205) | GI50 (A549) | GI50 (HCT-116) | GI50 (SNB-19) | GI50 (SK-OV-3) | GI50 (HCC 2998) | GI50 (HCT-15) [µM] | GI50 (UACC-62) | GI50 (TK-10) | GI50 (UACC-257) | GI50 (EKVX) | GI50 (NCI-H23) | GI50 (HOP-92) | GI50 (SF-295) | GI50 (RPMI-8226)
1 | COc1ccc(NN=C2C(=O)CCC2=O)cc1 | 37.5 µM (inactive) | 47.2 µM (inactive) | 18.3 µM (inactive) | > 100 µM (inactive) | > 100 µM (inactive) | > 100 µM (inactive) | > 100 µM (inactive) | > 100 | 5.69 µM (inactive) | > 100 µM (inactive) | 52.4 µM (inactive) | > 100 µM (inactive) | 69 µM (inactive) | > 100 µM (inactive) | 98.9 µM (inactive) | 
2 | CN1CCCC2(CCCc3ccccc32)C1 (stereo unspecified) | > 100 µM (inactive) | > 100 µM (inactive) | > 100 µM (inactive) | > 100 µM (inactive) |  | > 100 µM (inactive) | > 100 µM (inactive) | > 100 | > 100 µM (inactive) | > 100 µM (inactive) | > 100 µM (inactive) | > 100 µM (inactive) | > 100 µM (inactive) | 69.5 µM (inactive) | > 100 µM (inactive) | > 100 µM (inactive)
3 | Cc1ccc(C(=O)Nc2ncn(C3CC(O)C(CO)O3)c(=O)n2)cc1 (stereo unspecified) | > 100 µM (inactive) | > 100 µM (inactive) | > 100 µM (inactive) | > 100 µM (inactive) | 12.2 µM (inactive) | > 100 µM (inactive) | > 100 µM (inactive) | > 100 | > 100 µM (inactive) |  | > 100 µM (inactive) | > 100 µM (inactive) | > 100 µM (inactive) | > 100 µM (inactive) | > 100 µM (inactive) | > 45.9 µM (inactive)
4 | COC(OC)c1cc2c(cc1C=O)OCO2 | > 100 µM (inactive) |  | > 100 µM (inactive) | > 100 µM (inactive) | > 100 µM (inactive) | 43.8 µM (inactive) | > 100 µM (inactive) |  | 44 µM (inactive) | > 100 µM (inactive) | > 100 µM (inactive) | > 100 µM (inactive) | > 100 µM (inactive) | 80.7 µM (inactive) |  | 
5 | CCOC(=O)C1=C(Nc2ccc(Cl)c(Cl)c2)OC/C1=N\NC(=O)Cc1ccccc1 | > 100 µM (inactive) | > 100 µM (inactive) | > 100 µM (inactive) | 99.8 µM (inactive) | > 100 µM (inactive) | > 100 µM (inactive) | > 100 µM (inactive) |  | > 100 µM (inactive) | > 100 µM (inactive) | 63.7 µM (inactive) | > 100 µM (inactive) | > 100 µM (inactive) |  | > 100 µM (inactive) | 68.7 µM (inactive)
6 | Cc1coc2c1C(=O)C(=O)c1ccccc1-2 | 1.82 µM (inactive) | 1.5 µM (inactive) | 2.04 µM (inactive) | 0.301 µM (active) |  | 1.76 µM (inactive) | 1.9 µM (inactive) | 1.27 | 1.59 µM (inactive) | 1.9 µM (inactive) | 0.21 µM (active) |  | 1.92 µM (inactive) | 0.401 µM (active) | 1.65 µM (inactive) | 
7 | CC1=C(Cl)C=CP(=O)(OC(C)C)C1 (stereo unspecified) | > 100 µM (inactive) | > 100 µM (inactive) | > 100 µM (inactive) | 37.2 µM (inactive) |  |  | > 100 µM (inactive) | > 100 | > 100 µM (inactive) | > 100 µM (inactive) | > 100 µM (inactive) | > 100 µM (inactive) | > 100 µM (inactive) | > 100 µM (inactive) | > 100 µM (inactive) | 50.2 µM (inactive)
8 | CCCCCOc1ccc(/C=N\c2ccc(-c3ccc(/N=C\c4ccc(OCCCCC)cc4)c(OC)c3)cc2OC)cc1 | > 31.6 µM (inactive) | > 100 µM (inactive) | > 100 µM (inactive) | > 100 µM (inactive) | > 100 µM (inactive) | > 100 µM (inactive) | > 100 µM (inactive) | > 100 | > 100 µM (inactive) |  | > 100 µM (inactive) | > 100 µM (inactive) | > 100 µM (inactive) | > 100 µM (inactive) | > 100 µM (inactive) | > 100 µM (inactive)
9 | OC(Cn1cncn1)(Cn1cncn1)c1ccc(Cl)cc1Cl | > 100 µM (inactive) | > 100 µM (inactive) | > 100 µM (inactive) | > 100 µM (inactive) |  | > 100 µM (inactive) |  | > 100 | > 100 µM (inactive) | > 100 µM (inactive) | > 100 µM (inactive) |  | > 100 µM (inactive) | > 100 µM (inactive) | > 100 µM (inactive) | > 100 µM (inactive)
10 | CC(=O)Nc1ccc(/C=C/c2ccc(NC(=O)Nc3ccc(/C=C/c4ccc(NC(C)=O)cc4S(=O)(=O)O)c(S(=O)(=O)O)c3)cc2S(=O)(=O)O)c(S(=O)(=O)O)c1 | > 100 µM (inactive) | > 100 µM (inactive) | > 100 µM (inactive) | > 100 µM (inactive) | > 100 µM (inactive) | > 100 µM (inactive) | 98.6 µM (inactive) | 45.8 | > 100 µM (inactive) |  | > 100 µM (inactive) | > 100 µM (inactive) | > 100 µM (inactive) | 43.1 µM (inactive) | > 100 µM (inactive) | > 100 µM (inactive)
